Source: publication PMC6615252, “The binding affinity of PTPN13’s tandem PDZ2/3 domain is allosterically modulated” (BMC Molecular and Cell Biology, 2019)
Where “and” joins values, the source holds several entries; their conditions need not be identical. Identical values can stand only once. Entries after “also recorded” stand apart in the source; their conditions may differ. Residues, ends and D or L forms follow the SMILES beside them.

Assays:
[1] = target: T1, PDZ2 domain of PTPN13 (Mus musculus, UniProt Q64512); assay: NMR titration (2D 1H-15N-HSQC chemical shift perturbation) of 15N-enriched single PDZ2 domain with C-terminal dodecapeptides; format: binding; conditions: for NMR chemical shift perturbations of PDZ2 on peptide binding: 2D 1H-15N-HSQC, 298 K, pH 7.4
T1 construct: pGEX-2 T-PDZ2 (PTPN13 residues 1347–1450); GST (N, cleaved yes); made in house; host or cells: E. coli BL21(DE3)
T1 sequence (Q64512 1347-1450): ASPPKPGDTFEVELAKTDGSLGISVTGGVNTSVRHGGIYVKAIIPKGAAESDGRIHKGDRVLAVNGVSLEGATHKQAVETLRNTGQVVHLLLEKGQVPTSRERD
Protocol: (§1) We have applied multidimensional heteronuclear NMR spectroscopy in order to elucidate the binding affinities of the PDZ2 single domain and the tandem domain PDZ2/3 of PTPN13 for the chemically synthesized C-terminal dodecapeptides derived from APC and PRK2. The binding characteristics were analyzed in a titration series of the dodecamer peptides and ^15N isotopically-enriched PDZ2 and PDZ2/3 samples, respectively, and by monitoring the NMR chemical shift perturbations in a series of 2D ^1H-^15N heteronuclear single quantum coherence (HSQC) spectra with increasing ligand concentrations. It could be shown that all peptides bind to the canonical binding groove of PDZ domains (Figs. 1, 2, 3 and 4).
Bacterial expression plasmids pGEX-2 T-PDZ2 (PTPN13 residues 1347–1450), pGEX-2 T-PDZ3 (PTPN13 residues 1474–1580), and pGEX-2 T-PDZ2/3 (PTPN13 residues 1347–1580) were constructed by sub-cloning of PCR-generated PTPN13 cDNA fragments in-frame into appropriate pGEX-2 T vectors.
(§2) NMR spectra were acquired at 298 K on Bruker DRX 600 and AVANCE III HD 700 spectrometers. Typically, NMR samples contained 0.1–0.5 mM uniformly ^13C and/or ^15N-enriched protein in PBS buffer at pH 7.4 including 10% D2O [42–44]. All data were processed with either NMRPipe and analyzed with NMR View or TopSpin (www.bruker.com). […] The interaction between PDZ2 and PDZ3 was analyzed upon titrating PDZ3 to isotopically ^15N-enriched PDZ2 at a molar ratio of 1:1 at 298 K by recording 2D ^1H-^15N-HSQC NMR spectra. […] The differences in backbone ^1H and ^15N NMR chemical shifts were monitored via 2D ^1H-^15N-HSQC NMR spectra. The weighted ^1HN and ^15N chemical shift differences were calculated according to the following equation [45, 47]: […]
(§3) Averaged dissociation constants for the different complexes were calculated from least-squares fitting of the NMR chemical shift perturbations observed for several amino acids as a function of ligand concentration. NMR chemical shift perturbation data were analysed with the ORIGIN software package (www.originlab.com) as previously published. […]

[2] = target: T2, PDZ2 in PDZ2/3 tandem domain of PTPN13 (Mus musculus, UniProt Q64512); assay: NMR titration of PDZ2/3 tandem domain, PDZ2 resonances (PDZ2 in PDZ2/3); format: binding; conditions: final stoichiometric ratio APC:PDZ2/3 30:1
T2 construct: pGEX-2 T-PDZ2/3 (PTPN13 residues 1347–1580); GST (N, cleaved yes); made in house; host or cells: E. coli BL21(DE3)
T2 sequence (Q64512 1347-1580): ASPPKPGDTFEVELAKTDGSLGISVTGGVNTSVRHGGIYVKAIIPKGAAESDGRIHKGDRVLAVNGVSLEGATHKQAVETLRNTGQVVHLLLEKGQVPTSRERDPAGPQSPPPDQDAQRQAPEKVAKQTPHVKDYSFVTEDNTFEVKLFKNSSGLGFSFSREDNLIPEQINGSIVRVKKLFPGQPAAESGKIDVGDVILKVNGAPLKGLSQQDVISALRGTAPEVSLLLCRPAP
Protocol: as §1, with “4). […]” for “4).”
as §2, with “Typically, NMR samples contained 0.1–0.5 mM uniformly ^13C and/or ^15N-enriched protein in PBS buffer at pH 7.4 including 10% D2O [42–44].” left out

[3] = target: T3, PDZ3 in PDZ2/3 tandem domain of PTPN13 (Mus musculus, UniProt Q64512); assay: NMR titration of PDZ2/3 tandem domain, PDZ3 resonances (PDZ3 in PDZ2/3); format: binding; conditions: data not shown
T3 construct: pGEX-2 T-PDZ2/3 (PTPN13 residues 1347–1580); GST (N, cleaved yes); made in house; host or cells: E. coli BL21(DE3)
T3 sequence (Q64512 1347-1580): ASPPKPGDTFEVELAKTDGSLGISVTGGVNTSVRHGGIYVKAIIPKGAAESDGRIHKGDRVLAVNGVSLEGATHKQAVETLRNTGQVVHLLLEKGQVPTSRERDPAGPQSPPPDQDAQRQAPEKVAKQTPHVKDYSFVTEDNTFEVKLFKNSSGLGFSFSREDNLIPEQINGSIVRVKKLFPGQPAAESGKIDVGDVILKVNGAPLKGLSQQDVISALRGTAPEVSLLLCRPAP
Protocol: as §1, with “4). […]” for “4).”
as §2, with “Typically, NMR samples contained 0.1–0.5 mM uniformly ^13C and/or ^15N-enriched protein in PBS buffer at pH 7.4 including 10% D2O [42–44].” left out

[4] = target: T4, PDZ2/3 tandem domain of PTPN13 (Mus musculus, UniProt Q64512); assay: NMR titration of PDZ2/3 tandem domain with APC peptide, chemical shift perturbations and exchange regime; format: binding
T4 construct: pGEX-2 T-PDZ2/3 (PTPN13 residues 1347–1580); GST (N, cleaved yes); made in house; host or cells: E. coli BL21(DE3)
T4 sequence (Q64512 1347-1580): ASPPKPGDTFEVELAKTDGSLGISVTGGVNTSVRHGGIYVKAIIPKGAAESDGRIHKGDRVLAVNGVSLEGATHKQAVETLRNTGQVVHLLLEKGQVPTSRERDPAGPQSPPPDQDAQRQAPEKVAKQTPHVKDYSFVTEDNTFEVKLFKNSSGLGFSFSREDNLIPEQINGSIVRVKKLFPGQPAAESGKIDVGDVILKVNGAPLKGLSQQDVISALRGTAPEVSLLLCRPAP
Protocol: as §1
NMR spectra were acquired at 298 K on Bruker DRX 600 and AVANCE III HD 700 spectrometers. Typically, NMR samples contained 0.1–0.5 mM uniformly ^13C and/or ^15N-enriched protein in PBS buffer at pH 7.4 including 10% D2O [42–44]. All data were processed with either NMRPipe and analyzed with NMR View or TopSpin (www.bruker.com). The backbone assignments were obtained from the BioMagResBank accession numbers 15,199 (PDZ2/3) and 5131 (PDZ2). The interaction between PDZ2 and PDZ3 was analyzed upon titrating PDZ3 to isotopically ^15N-enriched PDZ2 at a molar ratio of 1:1 at 298 K by recording 2D ^1H-^15N-HSQC NMR spectra. […] The differences in backbone ^1H and ^15N NMR chemical shifts were monitored via 2D ^1H-^15N-HSQC NMR spectra. The weighted ^1HN and ^15N chemical shift differences were calculated according to the following equation [45, 47]: […]
as §3, with “published. The error for KD values was calculated from the individual fit of several significant chemical shift perturbations found for the amide resonances located in and/or next to the canonical PDZ binding cleft.” for “published.”

[5] = target: PDZ3 domain of PTPN13; conditions: single PDZ3 domain; NMR titration, 298 K, pH 7.4, PBS, DTT added; ref [12]; read-out: dissociation constant KD, PDZ3; cited from earlier work
Excerpt: The observed differences for APC binding to PDZ2 versus tandem PDZ2/3 are not large yet still considerable.

[6] = test system: single PDZ2 domain of PTPN13; conditions: previous study; class I (APC) and III (RIL) ligands; ref [21]; cited from earlier work
Excerpt: Based on the results from the NMR chemical shift perturbation analysis and HADDOCK molecular docking calculations we conclude, that an allosteric effect modulates the APC-binding characteristics of PDZ2 from PTPN13 (Fig. 7). Although peptides rather than the corresponding full-length proteins have been used here, numerous studies have shown before that the last four to six carboxy-terminal amino acids are essential for ligand binding to PDZ domains.

[7] = target: T5, APC peptide (Homo sapiens); assay: NMR titration
T5 chain: KRHSGSYLVTSV

[8] = target: T6, PRK2 peptide (Homo sapiens); assay: NMR titration
T6 chain: MFRDFDYIADWC

[9] = target: T1, PDZ2 domain of PTPN13; assay: NMR titration of single PDZ3 domain to 15N-enriched PDZ2 domain; format: binding; conditions: 15N-PDZ2, molar ratio 1:1, 2D 1H-15N-HSQC, 298 K; stoichiometry limited by solubility
Protocol: Thus, we titrated the single PDZ3 domain (residues 1491–1579) to the ^15N-enriched PDZ2 domain (residues 1357–1442) and monitored their interaction by recording a series of 2D ^1H-^15N-HSQC NMR spectra (Fig. 4a). […] However, the final maximal stoichiometry of PDZ2 and PDZ3 was approx. 1:1 due to solubility issues.
NMR spectra were acquired at 298 K on Bruker DRX 600 and AVANCE III HD 700 spectrometers. Typically, NMR samples contained 0.1–0.5 mM uniformly ^13C and/or ^15N-enriched protein in PBS buffer at pH 7.4 including 10% D2O [42–44]. All data were processed with either NMRPipe and analyzed with NMR View or TopSpin (www.bruker.com). The backbone assignments were obtained from the BioMagResBank accession numbers 15,199 (PDZ2/3) and 5131 (PDZ2). The interaction between PDZ2 and PDZ3 was analyzed upon titrating PDZ3 to isotopically ^15N-enriched PDZ2 at a molar ratio of 1:1 at 298 K by recording 2D ^1H-^15N-HSQC NMR spectra. In this study, the numbering scheme of the assigned chemical shifts for PDZ2 (5131) and PDZ23 (15199) has been shifted by one residue so that, for example, T30 according to the BMRB entry 5131 now equals T31. […] The differences in backbone ^1H and ^15N NMR chemical shifts were monitored via 2D ^1H-^15N-HSQC NMR spectra. The weighted ^1HN and ^15N chemical shift differences were calculated according to the following equation [45, 47]: […]

## CC(=O)N[C@@H](CCCCN)C(=O)N[C@@H](CCCNC(=N)N)C(=O)N[C@@H](Cc1c[nH]cn1)C(=O)N[C@@H](CO)C(=O)NCC(=O)N[C@@H](CO)C(=O)N[C@@H](Cc1ccc(O)cc1)C(=O)N[C@@H](CC(C)C)C(=O)N[C@H](C(=O)N[C@H](C(=O)N[C@@H](CO)C(=O)N[C@H](C(=O)O)C(C)C)[C@@H](C)O)C(C)C [APC]
[1]
  NMR chemical shift perturbations of PDZ2 on peptide binding: leads to NMR chemical shift differences observed along intra-domain signal pathways as previously predicted
[1]; comparison of free and APC-bound NMR spectra of individual PDZ2
  peptide-induced dimerisation of PDZ2: exclude an APC-induced dimerisation of PDZ2
[2]
  saturation of PDZ2 resonances at end of titration: no further chemical shift changes were observed for amide resonances originating from the PDZ2 domain
[3]
  saturation of PDZ3 at end of titration: PDZ3 was not fully saturated at the end of the titration
[4]; 2D 1H-15N-HSQC, 298 K, pH 7.4
  NMR chemical shift perturbations of PDZ2/3 tandem on titration: NMR chemical shift perturbations were observed for G12, L19, T31, G63, H94, L95, L97 of PDZ2 and K152 as well as S231 of PDZ3 in the tandem domain
[4]; 298 K, pH 7.4
  NMR exchange regime of binding to tandem PDZ2/3: fast exchange
[4]; APC peptide at molar ratio 1:30, single PDZ2 vs PDZ2 in PDZ2/3
  chemical shift differences between single PDZ2-APC complex and PDZ2 in PDZ2/3-APC complex: Major NMR chemical shift perturbations were observed on the back of the PDZ2 domain, i.e. opposite to the canonical PDZ binding cleft, mainly for EF (H94, L95, L97) and for EA (L19)
[5]
  Kd: ~721 µM and 721 µM
[6]
  binding to single PDZ2 domain: able to bind

## CC[C@H](C)[C@H](NC(=O)[C@H](Cc1ccc(O)cc1)NC(=O)[C@H](CC(=O)O)NC(=O)[C@H](Cc1ccccc1)NC(=O)[C@H](CC(=O)O)NC(=O)[C@H](CCCNC(=N)N)NC(=O)[C@H](Cc1ccccc1)NC(=O)[C@H](CCSC)NC(C)=O)C(=O)N[C@@H](C)C(=O)N[C@@H](CC(=O)O)C(=O)N[C@@H](Cc1c[nH]c2ccccc12)C(=O)N[C@@H](CS)C(=O)O [PRK2] (Ac-MFRDFDYIADWC-OH; C-terminus assumed)
[1]
  NMR chemical shift perturbations of PDZ2 on peptide binding: NMR chemical shift differences were observed for the canonical ligand binding groove of PDZ2 including G23, S24, which are also involved in peptide recognition, and S28, and G31; also recorded: Additional NMR chemical shift perturbations were observed for the β-strands EA and EF of PDZ2, located opposite to its canonical peptide binding groove
[5]
  Kd: 318 ± 47 µM

B1: PTPN13 (PDZ2 in PDZ2/3 tandem) PDZ2 in PDZ2/3 (protein)
chain: EVELAKNDNSLGISVTGGVNTSVRHGGIYVKAVIPQGAAESDGRIHKGDRVLAVNGVSLEGATHKQAVETLRNTGQVVHLLLEKG
[7]
  Kd: 211 µM

B2: PTPN13 PDZ2 (protein)
chain: DIFEVELAKNDNSLGISVTGGVNTSVRHGGIYVKAVIPQGAAESDGRIHKGDRVLAVNGVSLEGATHKQAVETLRNTGQVVHLLLEKGQSP
[8]
  Kd: 661 µM
[7]
  Kd: 286 µM

B3: PTPN13 (PDZ3 in PDZ2/3 tandem) PDZ3 in PDZ2/3 (protein)
chain: EVKLFKNSSGLGFSFSREDNLIPEQINASIVRVKKLFPGQPAAESGKIDVGDVILKVNGASLKGLSQQEVISALRGTAPEVFLLLCRP
[7]
  Kd: 2570 µM

B4: PDZ3: single PDZ3 domain (residues 1491–1579) of PTPN13 (protein, UniProt Q12923 1491-1579, looked up, fragment)
chain: YSFVTEENTFEVKLFKNSSGLGFSFSREDNLIPEQINASIVRVKKLFPGQPAAESGKIDVGDVILKVNGASLKGLSQQEVISALRGTAP
modifications: PDZ3 domain
notes: single PDZ3 domain (residues 1491–1579) of PTPN13
[9]
  chemical shift differences of PDZ2 upon titration with PDZ3: Only very minor chemical shift differences could be observed, if at all; also recorded: only yielded minor chemical shift differences; also recorded: Only very minor, if at all, chemical shift differences could be observed
